Results on 27 compounds are retold here after patent publication US11891365B2, “3-alkyl-4-amido-bicyclic [4,5,0] hydroxamic acids as HDAC inhibitors” (Valo Health, Inc., priority 2015, dated 2024).

For this test, the target named is T1, Full length human recombinant HDAC6 protein (Homo sapiens, UniProt Q9UBN7).
T1 sequence (Q9UBN7 1-1215): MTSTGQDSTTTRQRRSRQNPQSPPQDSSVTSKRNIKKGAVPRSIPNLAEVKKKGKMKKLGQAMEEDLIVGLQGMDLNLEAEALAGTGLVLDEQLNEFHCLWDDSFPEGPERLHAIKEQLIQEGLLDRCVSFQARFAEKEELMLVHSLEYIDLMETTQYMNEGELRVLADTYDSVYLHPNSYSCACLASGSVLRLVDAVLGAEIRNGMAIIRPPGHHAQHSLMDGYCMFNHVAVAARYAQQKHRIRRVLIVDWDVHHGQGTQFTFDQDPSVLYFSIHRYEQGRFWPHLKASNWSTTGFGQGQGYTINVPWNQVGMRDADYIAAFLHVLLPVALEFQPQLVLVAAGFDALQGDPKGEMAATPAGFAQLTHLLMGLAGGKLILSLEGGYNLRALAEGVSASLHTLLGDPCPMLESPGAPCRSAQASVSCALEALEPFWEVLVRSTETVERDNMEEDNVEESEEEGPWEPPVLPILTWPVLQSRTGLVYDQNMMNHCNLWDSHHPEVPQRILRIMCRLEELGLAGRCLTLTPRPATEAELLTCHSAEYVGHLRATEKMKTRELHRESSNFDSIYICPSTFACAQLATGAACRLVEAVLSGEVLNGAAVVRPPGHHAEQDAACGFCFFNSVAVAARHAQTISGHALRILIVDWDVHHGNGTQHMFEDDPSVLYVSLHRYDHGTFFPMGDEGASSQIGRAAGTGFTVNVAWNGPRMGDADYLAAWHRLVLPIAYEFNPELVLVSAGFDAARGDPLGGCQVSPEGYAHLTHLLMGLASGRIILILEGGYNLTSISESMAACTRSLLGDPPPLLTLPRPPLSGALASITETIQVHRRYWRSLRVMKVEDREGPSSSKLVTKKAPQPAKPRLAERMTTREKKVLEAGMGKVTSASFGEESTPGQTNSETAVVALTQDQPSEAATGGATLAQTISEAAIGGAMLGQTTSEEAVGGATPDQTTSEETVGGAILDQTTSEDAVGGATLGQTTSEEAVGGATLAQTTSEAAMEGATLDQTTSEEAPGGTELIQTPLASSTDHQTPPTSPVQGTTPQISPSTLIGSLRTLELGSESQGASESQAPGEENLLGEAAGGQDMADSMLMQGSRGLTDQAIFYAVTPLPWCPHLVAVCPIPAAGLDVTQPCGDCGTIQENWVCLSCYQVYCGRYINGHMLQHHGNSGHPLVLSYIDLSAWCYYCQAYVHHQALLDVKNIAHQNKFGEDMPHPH
The test can be described thus: In vitro histone deacetylase assay: enzymatic HDAC6 electrophoretic mobility shift assay. It is filed as biochemical. The settings on record: 1 nM enzyme, 2 μM peptide substrate RHKK(Ac)-NH2, 25° C., 12 concentrations; read-out: Inhibitory Concentration (IC50) Values against HDAC6, Activity Range.

Turning to `CCC1(C(=O)N2Cc3ccc(C(=O)NO)cc3OC[C@@H]2C)COC1` [(S)-4-(3-ethyloxetane-3-carbonyl)-N-hydroxy-3-methyl-2,3,4,5-tetrahydrobenzo[f][1,4]oxazepine-8-carboxamide], the IC50 was ≤ 100 nM.

Take `C[C@H]1COc2cc(C(=O)NO)ccc2CN1C(=O)c1ccc(F)cc1` [(S)-4-(4-fluorobenzoyl)-N-hydroxy-3-methyl-2,3,4,5-tetrahydrobenzo[f][1,4]oxazepine-8-carboxamide]: the IC50 was ≤ 100 nM.

As for `C[C@H]1COc2cc(C(=O)NO)ccc2CN1C(=O)C1(F)CCOCC1` [(S)-4-(4-fluorotetrahydro-2H-pyran-4-carbonyl)-N-hydroxy-3-methyl-2,3,4,5-tetrahydrobenzo[f][1,4]oxazepine-8-carboxamide], the IC50 was ≤ 100 nM.

Consider `C[C@H]1COc2cc(C(=O)NO)ccc2CN1C(=O)[C@@H]1CCOC(C)(C)C1` [(S)-4-((R)-2,2-dimethyltetrahydro-2H-pyran-4-carbonyl)-N-hydroxy-3-methyl-2,3,4,5-tetrahydrobenzo[f][1,4]oxazepine-8-carboxamide], for which the IC50 is ≤ 100 nM.

Turning to `C[C@H]1COc2cc(C(=O)NO)ccc2CN1C(=O)[C@H]1CCOC(C)(C)C1` [(S)-4-((S)-2,2-dimethyltetrahydro-2H-pyran-4-carbonyl)-N-hydroxy-3-methyl-2,3,4,5-tetrahydrobenzo[f][1,4]oxazepine-8-carboxamide], the IC50 was ≤ 100 nM.

Regarding `C[C@H]1COc2cc(C(=O)NO)ccc2CN1C(=O)C1CCC1` [(S)-4-(cyclobutanecarbonyl)-N-hydroxy-3-methyl-2,3,4,5-tetrahydrobenzo[f][1,4]oxazepine-8-carboxamide], the IC50 is ≤ 100 nM.

Take `C[C@H]1COc2cc(C(=O)NO)ccc2CN1C(=O)C1CCCCC1` [(S)-4-(cyclohexanecarbonyl)-N-hydroxy-3-methyl-2,3,4,5-tetrahydrobenzo[f][1,4]oxazepine-8-carboxamide]: the IC50 was ≤ 100 nM.

Consider `C[C@H]1COc2cc(C(=O)NO)ccc2CN1C(=O)C1CCCC1` [(S)-4-(cyclopentanecarbonyl)-N-hydroxy-3-methyl-2,3,4,5-tetrahydrobenzo[f][1,4]oxazepine-8-carboxamide], for which the IC50 was ≤ 100 nM.

In the case of `C[C@H]1COc2cc(C(=O)NO)ccc2CN1C(=O)C1CC1` [(S)-4-(cyclopropanecarbonyl)-N-hydroxy-3-methyl-2,3,4,5-tetrahydrobenzo[f][1,4]oxazepine-8-carboxamide], the IC50 is ≤ 100 nM.

Turning to `CC(=O)N1Cc2ccc(C(=O)NO)cc2O[C@@H](C)C1` [(S)-4-acetyl-N-hydroxy-2-methyl-2,3,4,5-tetrahydrobenzo[f][1,4]oxazepine-8-carboxamide], the IC50 was > 500 nM.

With `CC(=O)N1Cc2ccc(C(=O)NO)cc2OC[C@@H]1C(C)C` [(S)-4-acetyl-N-hydroxy-3-isopropyl-2,3,4,5-tetrahydrobenzo[f][1,4]oxazepine-8-carboxamide], the IC50 fell in the range of 100 to 500 nM.

With `CC(=O)N1Cc2ccc(C(=O)NO)cc2OC[C@@H]1C` [(S)-4-acetyl-N-hydroxy-3-methyl-2,3,4,5-tetrahydrobenzo[f][1,4]oxazepine-8-carboxamide], the IC50 was in the range of 100 to 500 nM.

As to `C[C@H]1COc2cc(C(=O)NO)ccc2CN1C(=O)c1ccccc1` [(S)-4-benzoyl-N-hydroxy-3-methyl-2,3,4,5-tetrahydrobenzo[f][1,4]oxazepine-8-carboxamide], the IC50 was ≤ 100 nM.

Regarding `COC[C@@H]1CN(C=O)Cc2ccc(C(=O)NO)cc2O1` [(S)-4-formyl-N-hydroxy-2-(methoxymethyl)-2,3,4,5-tetrahydrobenzo[f][1,4]oxazepine-8-carboxamide], the IC50 was in the range of 100 to 500 nM.

For `C[C@H]1CN(C=O)Cc2ccc(C(=O)NO)cc2O1` [(S)-4-formyl-N-hydroxy-2-methyl-2,3,4,5-tetrahydrobenzo[f][1,4]oxazepine-8-carboxamide], the IC50 is ≤ 100 nM.

With `O=CN1Cc2ccc(C(=O)NO)cc2O[C@@H](c2ccccc2)C1` [(S)-4-formyl-N-hydroxy-2-phenyl-2,3,4,5-tetrahydrobenzo[f][1,4]oxazepine-8-carboxamide], the IC50 is ≤ 100 nM.

For the compound `C[C@H]1COc2cc(C(=O)NO)ccc2CN1C=O` [(S)-4-formyl-N-hydroxy-3-methyl-2,3,4,5-tetrahydrobenzo[f][1,4]oxazepine-8-carboxamide], the IC50 is ≤ 100 nM.

Regarding `COC[C@@H]1CN(C(=O)C2(C)CCC2)Cc2ccc(C(=O)NO)cc2O1` [(S)-N-hydroxy-2-(methoxymethyl)-4-(1-methylcyclobutane-1-carbonyl)-2,3,4,5-tetrahydrobenzo[f][1,4]oxazepine-8-carboxamide], the IC50 is ≤ 100 nM.

As for `COC[C@@H]1CN(C(=O)C2CCOCC2)Cc2ccc(C(=O)NO)cc2O1` [(S)-N-hydroxy-2-(methoxymethyl)-4-(tetrahydro-2H-pyran-4-carbonyl)-2,3,4,5-tetrahydrobenzo[f][1,4]oxazepine-8-carboxamide], the IC50 was 100 to 500 nM.

Take `C[C@H]1CN(C(=O)C2(C)CCC2)Cc2ccc(C(=O)NO)cc2O1` [(S)-N-hydroxy-2-methyl-4-(1-methylcyclobutane-1-carbonyl)-2,3,4,5-tetrahydrobenzo[f][1,4]oxazepine-8-carboxamide]: the IC50 was 100 to 500 nM.

In the case of `O=C(NO)c1ccc2c(c1)O[C@@H](c1ccccc1)CN(C(=O)C1CCOCC1)C2` [(S)-N-hydroxy-2-phenyl-4-(tetrahydro-2H-pyran-4-carbonyl)-2,3,4,5-tetrahydrobenzo[f][1,4]oxazepine-8-carboxamide], the IC50 was ≤ 100 nM.

For `COC[C@H]1COc2cc(C(=O)NO)ccc2CN1C(=O)C1CCOCC1` [(S)-N-hydroxy-3-(methoxymethyl)-4-(tetrahydro-2H-pyran-4-carbonyl)-2,3,4,5-tetrahydrobenzo[f][1,4]oxazepine-8-carboxamide], the IC50 is ≤ 100 nM.

Regarding `CC(C)[C@H]1COc2cc(C(=O)NO)ccc2CN1C(=O)C1(C)CCC1` [(S)-N-hydroxy-3-isopropyl-4-(1-methylcyclobutane-1-carbonyl)-2,3,4,5-tetrahydrobenzo[f][1,4]oxazepine-8-carboxamide], the IC50 was ≤ 100 nM.

Consider `CC(C)[C@H]1COc2cc(C(=O)NO)ccc2CN1C(=O)CC1CCOCC1` [(S)-N-hydroxy-3-isopropyl-4-(2-(tetrahydro-2H-pyran-4-yl)acetyl)-2,3,4,5-tetrahydrobenzo[f][1,4]oxazepine-8-carboxamide], for which the IC50 is 100 to 500 nM.

For `CC(C)[C@H]1COc2cc(C(=O)NO)ccc2CN1C(=O)C1CCOCC1` [(S)-N-hydroxy-3-isopropyl-4-(tetrahydro-2H-pyran-4-carbonyl)-2,3,4,5-tetrahydrobenzo[f][1,4]oxazepine-8-carboxamide], the IC50 was ≤ 100 nM.

In the case of `C[C@H]1COc2cc(C(=O)NO)ccc2CN1C(=O)C1(C)CCC1` [(S)-N-hydroxy-3-methyl-4-(1-methylcyclobutane-1-carbonyl)-2,3,4,5-tetrahydrobenzo[f][1,4]oxazepine-8-carboxamide], the IC50 is ≤ 100 nM.

For the compound `C[C@H]1COc2cc(C(=O)NO)ccc2CN1C(=O)CC1CCOCC1` [(S)-N-hydroxy-3-methyl-4-(2-(tetrahydro-2H-pyran-4-yl)acetyl)-2,3,4,5-tetrahydrobenzo[f][1,4]oxazepine-8-carboxamide], the IC50 lay in the range of 100 to 500 nM.
